Here are results for 25 compounds from paper PMC6713233 (Toxicology in vitro : an international journal published in …, 2019).

SMILES strings stand for the structures. Values joined by “and” are separate entries in the source; they are usually repeats but may differ in a detail not shown here. Identical values can stand only once. Like-named read-outs stand apart in the source and are kept apart here.

Series [1] deals with T1, recombinant human AChE (Homo sapiens, UniProt P22303). The series is described as follows: biochemical. Type of series: biochemical. The conditions noted are these: for Emax: read-out: efficacy (%), Colorimetric.
The target of series [2] is T1, recombinant human AChE. The series is described as follows: biochemical. The following applies: for Emax: read-out: efficacy (%), Fluorescence. The format is biochemical.
The target of series [3] is T1, recombinant human AChE. Kind of series: biochemical.
For series [4], the target named is T1, recombinant human AChE. The series is described as follows: biochemical. The format is biochemical. The following applies: for Emax: read-out: efficacy (%), Colorimetric, +Rat MS.
For series [5], the target named is T1, recombinant human AChE. Type of series: biochemical.
Series [6] addresses T1, recombinant human AChE. The series is described as follows: biochemical. The conditions noted are these: for Emax: read-out: efficacy (%), Fluorescence, +Rat MS. The format is biochemical.
In series [7] the test system is AChE. The following applies: following exposure; ref International Programme on Chemical Safety, 1989; cited from earlier work.
Series [8] has as its system cholinesterase. The conditions noted are these: following exposure; rats, mice, birds, fish, and farm animals; ref International Programme on Chemical Safety, 1989; cited from earlier work.
Where [9] appears, read: IC50 (μM), Colorimetric, +Human MS.

T1 sequence (P22303 32-614): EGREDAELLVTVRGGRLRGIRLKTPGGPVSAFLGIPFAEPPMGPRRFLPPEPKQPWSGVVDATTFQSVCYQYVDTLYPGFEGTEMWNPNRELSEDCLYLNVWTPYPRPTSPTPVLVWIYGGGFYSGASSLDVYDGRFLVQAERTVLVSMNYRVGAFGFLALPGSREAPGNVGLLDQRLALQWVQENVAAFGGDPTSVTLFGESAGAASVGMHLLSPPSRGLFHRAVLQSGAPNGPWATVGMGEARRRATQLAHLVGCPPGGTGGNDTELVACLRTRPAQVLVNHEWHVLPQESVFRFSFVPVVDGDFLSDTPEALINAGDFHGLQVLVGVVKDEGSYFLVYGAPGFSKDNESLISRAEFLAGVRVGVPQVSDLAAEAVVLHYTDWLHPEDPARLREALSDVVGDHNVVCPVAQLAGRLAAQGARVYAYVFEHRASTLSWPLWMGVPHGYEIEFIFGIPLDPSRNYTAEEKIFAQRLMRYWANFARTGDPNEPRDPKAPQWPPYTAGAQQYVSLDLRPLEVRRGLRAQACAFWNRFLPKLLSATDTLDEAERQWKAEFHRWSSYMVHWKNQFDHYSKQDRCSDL

As for `CCOC(=O)CC(SP(=S)(OC)OC)C(=O)OCC` (stereo not shown) [Malathion], the “IC50 (μM), Colorimetric” value in series [1] is given as “Inactive”. Further, the Emax in series [2] was 77%; in series [4], 59.4%. In addition, the “IC50 (μM), Colorimetric, +Human MS” value in series [3] was “Inactive”. In series [5], the “IC50 (μM), Fluorescence, +Human MS” value is on record as “Inactive”. Also, the “IC50 (μM), Fluorescence, +Rat MS” value in series [6] is listed as “Inactive”.

By IC50 is commonly meant the concentration needed to halve the response being measured. As to `CCOP(=S)(OCC)Oc1nc(Cl)c(Cl)cc1Cl` [Chlorpyrifos], in series [1], the “IC50 (μM), Colorimetric” value is “Inactive”. The Emax was 100% in series [2], 98.8% in series [4] and 89.8% in series [6]. The “efficacy (%), Colorimetric, +Human MS” value in series [3] is on record as 1.71±0.47 (−93.65±1.00) %. Also, the “inhibition of AChE activity” value in series [3] is “did not inhibit AChE activity”. Moreover, the half-inhibitory concentration (IC50) was 1.71 µM in series [3] (setting [9]); 1.31 µM and 0.78 µM and 0.8 µM in series [3] (IC50, inhibition of AChE). Besides, the “efficacy (%), Fluorescence, +Human MS” value in series [5] is listed as 1.22±0.00 (−102.89±2.97) %.

Turning to `CCOP(=O)(SC(C)CC)N1CCSC1=O` (stereo not shown) [Fosthiazate], in series [1], the “IC50 (μM), Colorimetric” value was “Inactive” and the “inhibitory effect on AChE activity (in words)” value (“inhibitory effect” for short) is “did not show inhibition effects”. For the same compound, in series [2], the “IC50 (μM), Fluorescence” value is “Inactive” and the “inhibitory effect” value was “did not show inhibition effects”.

With `CCOP(=S)(OCC)Oc1ccc2c(C)c(Cl)c(=O)oc2c1` [Coumaphos], in series [1], the “IC50 (μM), Colorimetric” value is on record as “Inactive”. The values for the Emax in series [2], in series [4] and in series [6] were 83.3%, 96.5% and 95%, respectively. In addition, in series [3], the “efficacy (%), Colorimetric, +Human MS” value was 8.06±1.94 (−98.15±5.15) %. Also, the IC50 in series [3] (setting [9]) turned out to be 8.06 µM. The “efficacy (%), Fluorescence, +Human MS” value in series [5] is given as 12.95±1.05 (−67.18±4.87) %.

For `COP(=O)(OC)O/C(C)=C/C(=O)N(C)C` [Dicrotophos], the Emax in series [1] is 32.5%; in series [2] it was 82.7%.

Take `CNC(=O)CSP(=O)(OC)OC` [Omethoate]: the “IC50 (μM), Colorimetric” value in series [1] is listed as “Inactive”. For the same compound, in series [2], the half-inhibitory concentration (IC50) worked out at 68.9 µM and the Emax was 46.3%.

For `CCOP(=S)(OCC)OC(Cl)C(Cl)(Cl)Cl` (stereo not shown) [Chlorethoxyfos], the Emax in series [1] was 46.3%; in series [2] it was 99.2%; in series [4], 105%; in series [6], 100%. The “efficacy (%), Colorimetric, +Human MS” value in series [3] is on record as 10.88±0.00 (−102.91±1.64) %. In addition, the IC50 in series [3] (setting [9]) came to 10.9 µM. In series [5], the “efficacy (%), Fluorescence, +Human MS” value is 31.57±8.80 (−99.07±7.79) %.

Take `CCN(CC)c1nc(C)cc(OP(=S)(OC)OC)n1` [Pirimiphos-methyl]: the “IC50 (μM), Colorimetric” value in series [1] is on record as “Inactive”. In addition, the “IC50 (μM), Fluorescence” value in series [2] is listed as “Inactive”. The “IC50 (μM), Colorimetric, +Human MS” value in series [3] is recorded as “Inactive”. For the same compound, in series [4], the “IC50 (μM), Colorimetric, +Rat MS” value is “Inactive”. The “IC50 (μM), Fluorescence, +Human MS” value in series [5] was “Inactive”. In series [6], the half-inhibitory concentration (IC50) was determined as 41.7 µM and the Emax is 42%.

With `CCOP(=S)(OCC)Oc1cc(C)nc(C(C)C)n1` [Diazinon], the Emax in series [1] was 102%; in series [2] it was 96.3%; in series [4], 73.1%. Also, in series [3], the “IC50 (μM), Colorimetric, +Human MS” value is “Inactive”. Besides, in series [5], the “efficacy (%), Fluorescence, +Human MS” value was 113.22±7.66 (−71.22±6.26) %. Further, the “IC50 (μM), Fluorescence, +Rat MS” value in series [6] is on record as “Inactive”.

Turning to `CCCCSP(=O)(SCCCC)SCCCC` [Tribufos], the “IC50 (μM), Colorimetric” value in series [1] is recorded as “Inactive”. For the same compound, the Emax in series [2] was 60.8%.

Consider `CCOP(=O)(OCC)Oc1cc(C)nc(C(C)C)n1` [Diazoxon], for which the IC50 in series [1] came out at 1.33 µM. Also, the Emax in series [1] is 95.2%; in series [2] it was 77.7%.

For `CNC(=O)CSP(=S)(OC)OC` [Dimethoate], the “IC50 (μM), Colorimetric” value in series [1] is “Inactive”. For the same compound, in series [2], the “IC50 (μM), Fluorescence” value is recorded as “Inactive”. In series [3], the “IC50 (μM), Colorimetric, +Human MS” value is “Inactive”. Moreover, in series [4], the “IC50 (μM), Colorimetric, +Rat MS” value was “Inactive”. The “IC50 (μM), Fluorescence, +Human MS” value in series [5] is “Inactive”. Further, the “IC50 (μM), Fluorescence, +Rat MS” value in series [6] is reported as “Inactive”. For the same compound, the “AChE inhibition in human volunteers” value in series [7] was “no AChE inhibition was observed”. Moreover, in series [8], the “cholinesterase activity in animals” value was “cholinesterase activity was inhibited”.

On to `COP(=S)(OC)SCN1C(=O)c2ccccc2C1=O` [Phosmet], for which the “IC50 (μM), Colorimetric” value in series [1] is “Inactive”. Also, the Emax was 65.3% in series [2] and 43.5% in series [6]. The “IC50 (μM), Colorimetric, +Human MS” value in series [3] is “Inactive”. The “IC50 (μM), Colorimetric, +Rat MS” value in series [4] was “Inactive”. Moreover, the “IC50 (μM), Fluorescence, +Human MS” value in series [5] was “Inactive”.

As for `CCCSP(=O)(OCC)Oc1ccc(Br)cc1Cl` (stereo not shown) [Profenofos], the values for the Emax in series [1] and in series [2] were 83.2% and 93.7%, respectively.

As to `CCOP(=S)(OCC)SCSC(C)(C)C` [Terbufos], the “IC50 (μM), Colorimetric” value in series [1] is “Inactive”. The “IC50 (μM), Fluorescence” value in series [2] is listed as “Inactive”. In addition, the “efficacy (%), Colorimetric, +Human MS” value in series [3] was 31.74±5.73 (−57.67±2.16) %. The IC50 in series [3] (setting [9]) stood at 31.7 µM. The figures for the Emax in series [4] and in series [6] were 95.7% and 85.3%, respectively. Also, the “IC50 (μM), Fluorescence, +Human MS” value in series [5] is listed as “Inactive”.

Take `CCOC(=O)CC(SP(=O)(OC)OC)C(=O)OCC` (stereo not shown) [Malaoxon]: the results for the Emax in series [1] and in series [2] were 91.1% and 95.2%, respectively.

As to `COP(=O)(OC)OC=C(Cl)Cl` [Dichlorvos], the Emax in series [1] was 34.9%; in series [2] it was 76.8%.

Turning to `CCOP(=S)(Oc1cnc(C(C)(C)C)nc1)OC(C)C` (stereo not shown) [Tebupirimfos], the Emax is 53% in series [1], 90.4% in series [2], 100% in series [4] and 91% in series [6]. In addition, in series [3], the “efficacy (%), Colorimetric, +Human MS” value is on record as 14.39±2.31 (−95.21±2.02) %. Further, the IC50 in series [3] (setting [9]) stood at 14.4 µM. Further, the “efficacy (%), Fluorescence, +Human MS” value in series [5] is recorded as 48.81±5.61 (−70.67±3.28) %.

Consider `CCOP(=S)(OCC)SCSCC` [Phorate], for which the “IC50 (μM), Colorimetric” value in series [1] is “Inactive”. Also, the Emax in series [2] was 44.4%; in series [4] it was 96.3%; in series [6], 72%. The “IC50 (μM), Colorimetric, +Human MS” value in series [3] was “Inactive”. For the same compound, the “inhibitory effect” value in series [3] was “did not show inhibitory effects”. The “IC50 (μM), Fluorescence, +Human MS” value in series [5] is listed as “Inactive”.

With `COP(=O)(OC)C(O)C(Cl)(Cl)Cl` (stereo not shown) [Trichlorfon], the Emax in series [1] is 30%; in series [2] it was 91.5%.

As to `COP(=O)(OC)O/C(=C\Cl)c1cc(Cl)c(Cl)cc1Cl` [Z-Tetrachlorvinphos], in series [1], the “IC50 (μM), Colorimetric” value is listed as “Inactive”. Further, the Emax in series [2] was 75.7%.

Turning to `COP(N)(=O)SC` (stereo not shown) [Methamidophos], the Emax in series [1] is 38.7%; in series [2], 103%.

As to `COP(=O)(NC(C)=O)SC` (stereo not shown) [Acephat], in series [1], the “IC50 (μM), Colorimetric” value is listed as “Inactive”. Also, the “IC50 (μM), Fluorescence” value in series [2] is recorded as “Inactive”.

For the compound `COP(=O)(OC)OC(Br)C(Cl)(Cl)Br` (stereo not shown) [Naled], in series [1], the IC50 stood at 61.3 µM and the Emax is 46.5%. In addition, in series [2], the “IC50 (μM), Fluorescence” value is “Inactive”.

Consider `CCCSP(=O)(OCC)SCCC` [Ethoprop], for which the Emax in series [1] is 43.4%.
